According to US12178802B1, “3-(1-(3-(dimethylamino)propyl)-4,5-diphenyl-1H-imidazol-2-yl)pyridin-2-ol as an antitumor and antimicrobial compound” (KING FAISAL UNIVERSITY, priority 2023, dated 2024):

Legend:
Assay in all cases: cup-plate agar diffusion antimicrobial activity
Assay type in all cases: cell-based
Escherichia coli = system: Escherichia coli
Text: (§1) Antibacterial activity of the synthesized compound has been tested using Gram-negative strains such as Escherichia coli, Salmonella enteric, Pseudomonas aeruginosa, and Pseudomonas putida; and Gram-positive strains such as Staphylococcus aureus, Staphylococcus epidermidis, Bacillus subtilis, and Micrococcus luteus. Additionally, antifungal activity has been tested using different Candida strains such as Candida albicans, Candida glabrata, and Candida krusei.
(§2) The present compound 3-(1-(3-(Dimethylamino)propyl)-4,5-diphenyl-1H-imidazol-2-yl)pyridin-2-ol was dissolved in DMF followed by dilution in buffer to obtain final concentrations of 60,000, 30,000 and 15,000 ppm. The final concentration of DMF was less than 2% in the final buffer solutions.
(§3) Negative control was performed using DMF diluted to similar final concentrations of compound solutions. Ampicillin and Geneticin were used as positive controls with similar dilutions and final concentrations.
(§4) Using the cup-plate agar diffusion method, a definite volume of the microbial suspension (inoculums) was mixed with sterilized agar media. Plates were prepared and left to solidify and then wells were prepared using a sterile cork borer. The wells were filled with an equal volume of a solution of synthesized compounds and standard drugs. The plates were incubated for a definite time under specified conditions. The zones of inhibition were measured in cm as a parameter of antimicrobial activity.
(§5) The tested antimicrobial activity of the 3-(1-(3-(Dimethylamino)propyl)-4,5-diphenyl-1H-imidazol-2-yl)pyridin-2-ol, as compared to ampicillin, can be seen in Table 1, below, with zones of inhibition measured in cm.

Pseudomonas putida = system: Pseudomonas putida
Text: as §1, §2, §3, §4, §5

[1] = system: Staphylococcus epidermidis
Text: as §1, §2, §3, §4, §5

Pseudomonas aeruginosa = system: Pseudomonas aeruginosa
Text: as §1, §2, §3, §4, §5

Staphylococcus aureus = system: Staphylococcus aureus
Text: as §1, §2, §3, §4, §5

Salmonella enterica = system: Salmonella enterica
Text: as §1, §2, §3, §4, §5

Bacillus subtilis = system: Bacillus subtilis
Text: as §1, §2, §3, §4, §5

Micrococcus luteus = system: Micrococcus luteus
Text: as §1, §2, §3, §4, §5

CN(C)CCCn1c(-c2cccnc2O)nc(-c2ccccc2)c1-c1ccccc1 [3-(1-(3-(Dimethylamino)propyl)-4,5-diphenyl-1H-imidazol-2-yl)pyridin-2-ol]
zones of inhibition (Escherichia coli; concentration 15): 0.6 cm
zones of inhibition (Escherichia coli; concentration 30): 0.9 cm
zones of inhibition (Escherichia coli; concentration 60): 1.00 cm
zones of inhibition (Pseudomonas putida; concentration 15): 0.1 cm
zones of inhibition (Pseudomonas putida; concentration 30): 0.5 cm
zones of inhibition (Pseudomonas putida; concentration 60): 1.1 cm
zones of inhibition ([1]; concentration 15): 2.1 cm
zones of inhibition ([1]; concentration 30): 3.0 cm
zones of inhibition ([1]; concentration 60): 3.3 cm
zones of inhibition (Pseudomonas aeruginosa; concentration 15): 0.6 cm
zones of inhibition (Pseudomonas aeruginosa; concentration 30): 0.7 cm
zones of inhibition (Pseudomonas aeruginosa; concentration 60): 1.1 cm
zones of inhibition (Staphylococcus aureus; concentration 15): 2.0 cm
zones of inhibition (Staphylococcus aureus; concentration 30): 2.9 cm
zones of inhibition (Staphylococcus aureus; concentration 60): 3.9 cm
zones of inhibition (Salmonella enterica; concentration 15): 0.7 cm
zones of inhibition (Salmonella enterica; concentration 30): 1.0 cm
zones of inhibition (Salmonella enterica; concentration 60): 1.7 cm
zones of inhibition (Bacillus subtilis; concentration 15): 1.1 cm
zones of inhibition (Bacillus subtilis; concentration 30): 1.5 cm
zones of inhibition (Bacillus subtilis; concentration 60): 2.7 cm
zones of inhibition (Micrococcus luteus; concentration 15): 1.2 cm
zones of inhibition (Micrococcus luteus; concentration 30): 2.4 cm
zones of inhibition (Micrococcus luteus; concentration 60): 3.2 cm

CC1(C)S[C@@H]2[C@H](NC(=O)[C@H](N)c3ccccc3)C(=O)N2[C@H]1C(=O)O [Ampicillin]
zones of inhibition (Escherichia coli; concentration 15): 0.4 cm
zones of inhibition (Escherichia coli; concentration 30): 0.8 cm
zones of inhibition (Escherichia coli; concentration 60): 1.2 cm
zones of inhibition (Pseudomonas putida; concentration 15): 0.3 cm
zones of inhibition (Pseudomonas putida; concentration 30): 0.6 cm
zones of inhibition (Pseudomonas putida; concentration 60): 1.0 cm
zones of inhibition ([1]; concentration 15): 2.5 cm
zones of inhibition ([1]; concentration 30): 3.0 cm
zones of inhibition ([1]; concentration 60): 3.5 cm
zones of inhibition (Pseudomonas aeruginosa; concentration 15): 0.4 cm
zones of inhibition (Pseudomonas aeruginosa; concentration 30): 0.8 cm
zones of inhibition (Pseudomonas aeruginosa; concentration 60): 1.2 cm
zones of inhibition (Staphylococcus aureus; concentration 15): 2.9 cm
zones of inhibition (Staphylococcus aureus; concentration 30): 3.5 cm
zones of inhibition (Staphylococcus aureus; concentration 60): 4.0 cm
zones of inhibition (Salmonella enterica; concentration 15): 0.9 cm
zones of inhibition (Salmonella enterica; concentration 30): 1.3 cm
zones of inhibition (Salmonella enterica; concentration 60): 1.6 cm
zones of inhibition (Bacillus subtilis; concentration 15): 1.2 cm
zones of inhibition (Bacillus subtilis; concentration 30): 1.9 cm
zones of inhibition (Bacillus subtilis; concentration 60): 2.3 cm
zones of inhibition (Micrococcus luteus; concentration 15): 1.8 cm
zones of inhibition (Micrococcus luteus; concentration 30): 2.8 cm
zones of inhibition (Micrococcus luteus; concentration 60): 3.6 cm
